The text below walks through data of patent US20250312468A1, “ANTI-PROTAC ANTIBODIES AND COMPLEXES” (Merck Patent GmbH, priority 2021, published 2025).

One data set concerns HEPG2 cells. As to the kind of experiment: CellTiter-Glo cell viability assay (MIC2-based PAX). The following applies: EGFR-negative HEPG2, complexes at 50% loading. As to the method:
2000 cells per well were seeded into white-opaque 384-well plates followed by overnight incubation in a humid chamber at 37° C. and 5% CO2. Complexation was performed as described in chapter 7.4.
The solutions were added to the cells based on the antibody concentration using Tecan D300e dispenser and all wells were normalized to the same volume using 0.3% TW20 in PBS pH 7.4 and DMSO. The assay was developed after 3 days if not otherwise stated using CellTiter-Glo Luminescent Cell Viability Assay as described in the manufacturer's protocol. In brief, the plates were equilibrated to room temperature for 30 minutes. 100 mL CellTiter-Glo Buffer were added to the CellTiter-Glo Substrate Flask and mixed well. 30 μL of the reagent was transferred to each well. After incubation for 3 minutes at room temperature while shaking at 550 rpm, the plate was incubated for another 10 minutes at room temperature. The luminescence was read on an Envision reader. The evaluation was performed using GraphPad Prism 8 by normalization of cells treated with sample to untreated cells. The data were fitted with 4 point logistic curve to determine the IC50 value.

The next data set in a line: Mouse serum stability. It counts as in vitro ADME. Particulars: 5 μM, 37° C. As to the method: The mixture was incubated 2 hours at room temperature while shaking at 650 rpm. 15% (vol/vol) 2 M HEPES buffer pH 7.55 were added to mouse serum from Biowest (Lot.no. S18169S2160) followed by sterile filtration.
The incubation was stopped by freezing at −20° C.
The concentration of PROTAC GNE987 was quantified using LC-MS.
Quantification was performed using a total antibody ELISA (FIG. 24).

Another data set concerns A549. As to the kind of experiment: CellTiter-Glo cell viability assay (VHH-based PAX). The following applies: A549, PROTAC alone. The procedure:
(§1) Several cell viability experiments were performed following the procedure described below: Cells were seeded in different media into white cell culture-treated flat and clear bottom multiwell plates followed by overnight incubation in a humid chamber at 37° C. and 5% CO2. Complexation was performed as described in chapter 7.4.
(§2) The solutions were added to the cells based on the antibody concentration using nanodrop dispension using a Tecan D300e Digital Dispenser and all wells were normalized to the same volume using 0.3% TW20 in PBS pH 7.4 and DMSO to a final solvent concentration of 0.05% DMSO and 0.003% TW20. Incubation was performed at 37° C. at 5% or 10% CO2 dependent on the medium. The assay was developed after 3 days if not otherwise stated using CellTiter-Glo Luminescent Cell Viability Assay as described in the manufacturer's protocol. In brief, the plates were equilibrated to room temperature for 30 minutes. 100 mL CellTiter-Glo Buffer were added to the CellTiter-Glo Substrate Flask and mixed well. 30 μL of the reagent was transferred to each well. After incubation for 3 minutes at room temperature while shaking at 550 rpm, the plate was incubated for another 10 minutes at room temperature. The luminescence was read on an Envision reader from Perkin Elmer. Solvent alone and Bortezomib (1.0E-05 M) served as high control (100% viability) and low control (0% viability), respectively. Raw data were converted into percent cell viability relative to the high and low control, which were set to 100% and 0%, respectively. […] The concentration corresponds to the concentration of PROTACs in the PAX.

A further data set deals with NCIN87. The data set can be described thus: CellTiter-Glo cell viability assay (VHH-based PAX). The following applies: NCIN87, PROTAC alone. The procedure: as §1, §2
The next data set deals with OVCAR3. As to the kind of experiment: CellTiter-Glo cell viability assay (VHH-based PAX). Particulars: OVCAR3, PROTAC alone. The procedure:
as §1, §2

For a further data set, the system named is RAMOS cells. The data set can be described thus: CellTiter-Glo cell viability assay (VHH-based PAX). The following applies: PROTAC alone. The procedure:
as §1, §2
(In general: In ATP-based viability assays light output follows the ATP content of the culture.)

The subject of a further data set is SKBR3. The data set can be described thus: CellTiter-Glo cell viability assay (VHH-based PAX). Particulars: SKBR3, PROTAC alone. The procedure:
as §1, §2

In the next data set the test system is SW620. The data set can be described thus: CellTiter-Glo cell viability assay (VHH-based PAX). Particulars: SW620, PROTAC alone. As to the method: as §1, §2
Another data set has as its system MV411 xenograft. The data set can be described thus: MV411 xenograft efficacy study in female CB17 SCID mice. In kind it is in vivo, mouse. The procedure:
Human leukemic MV411 cells were xenografted in immunocompromised mice. Three million MV411 cells were injected subcutaneously in the left flank of untreated female CB17 SCID mice. Randomization of the animals in the different treatment groups and the initiation of the treatment was started after the average tumor size reached 45 mm^2. The control groups were treated with vehicle. The test groups were treated with 0.38 mg/kg GNE987 and 30 mg/kg CD33xMIC7+GNE987 (loaded with 0.38 mg/kg GNE987) once (at day 1). Further, two groups were treated twice, either with 30 mg/kg CD33xMIC7+GNE987 (loaded with 0.38 mg/kg GNE987) at day 1 followed by treatment with 0.38 mg/kg GNE987 at day 8 or with 0.38 mg/kg GNE987 at day 1 and 8. Additionally, one group received 30 mg/kg CD33xMIC5+GNE987 (loaded with 0.38 mg/kg GNE987) once (at day 1) and another group received the antibody control 30 mg/kg CD33xMIC7 without PROTAC once (at day 1). The individual groups were stopped before tumors reached a maximum tumor size (225 mm^2) (FIG. 49).

For data set [1] the following is noted: Pillow, T. H. et al., ChemMedChem 15 (2020) 17-25; cited from earlier work.

For the compound `Cc1ncsc1-c1ccc(CNC(=O)[C@@H]2C[C@@H](O)CN2C(=O)[C@@H](NC(=O)CCCCCCCCCCNC(=O)c2cc3c(cc2CS(C)(=O)=O)-c2cn(C)c(=O)c4[nH]cc(c24)CN3c2ncc(F)cc2F)C(C)(C)C)cc1` [GNE987], the IC50 – broadly, the concentration that inhibits the measured activity by half – is 3.1 nM in the data set with HEPG2 cells; 1.4 nM in the data set on A549; 0.53 nM with NCIN87; 0.4 nM with OVCAR3; 0.058 nM in the data set with RAMOS cells; 0.39 nM in the data set with SKBR3. In the data set with SW620, 0.84 nM corresponded to half-maximal inhibition (IC50). Moreover, the “stability of GNE987 in mouse serum (LC-MS)” value in the data set “Mouse serum stability” was “stable over 72 hours”. In addition, the “day post re-dosing where tumors started to grow again” value in the data set with MV411 xenograft (0.38 mg/kg GNE987 at day 1 and 8) is roughly 3 days. In addition, in the data set on MV411 xenograft (dosed once at day 1), the “anti-tumor effect (in words)” value was “induced anti-tumor effects”. Further, in the data set with MV411 xenograft (single dose at day 1 (0.38 mg/kg GNE987 or 30 mg/kg PAX)), the “day until which tumor growth was inhibited / tumors started to progress” value was roughly 4 days. Moreover, in [1], the “half-life reported in literature” value is 2.8 h.
